Data taken from article PMC2692672 (Journal of molecular biology, 2009).

Molecular target: GRP94 (Canis lupus, UniProt P41148, DEL287-327)
Test: co-crystal structure
Assay type: binding

COC(=O)c1c(O)cc(O)c(Cl)c1CCC(=O)NC1=CC(=O)C(OC)=CC1=O [Radamide]
Kd: 520 ± 130 nM
